Test results reported in patent US20150343016A1, “CHEMICAL ENTITIES AND THERAPEUTIC USES THEREOF” (The Regents of the University of Colorado, a body corporate, priority 2010, published 2015).

Experiments:
[1] = test system: p53 mutant Drosophila larvae; assay: Drosophila larval survival to adulthood (eclosion), drug with and without IR, p53 mutants; type: in vivo; details: p53 mutants; for eclosion expected if the two treatments produced an additive effect: Bouvardin and IR
Experimental: (§1) To validate the identification of Bouvardin from the primary screen, the effect of this molecule on Drosophila larvae alone or in combination with radiation were assessed (FIG. 12). The screen was performed using irradiated mutant larvae. Hits from the screen were defined as those that reduced the survival of IRRADIATED larvae compared to the population of drugs being tested (approximately 80 molecules at a time) or compared to DMSO controls in the re-test. A hit could therefore act by enhancing the effect of radiation, or by simply killing larvae as a single agent, or both. To distinguish among these possibilities, hits from the screen were re-tested against larvae with and without irradiation.
(§2) In FIG. 12 survival after each treatment is expressed as the fraction of animals that emerged (“eclosed”) as viable adults. The averages have been normalized to the average fraction eclosed in no IR/drug control for the respective genotype. Error bars extend beyond fractional survival of 1.0 simply because of normalization. (A-C) Fraction eclosed for WT and grp and p53 mutants at 16 uM of Bouvardin, with and without IR. The data are averages of 3-8 biological replicates per sample. Dotted line on each graph denotes expected ‘fraction eclosed’ if drug and IR act additively. IR doses were 4000R for WT and grp and 3000R for p53 because of the higher radiation sensitivity of the latter. (D) Fraction eclosed for Minute mutants and yw controls after exposure to 0 (−IR) and 2000R (+IR) of X-rays. N ranged from 86-207 per genotype per treatment, in 3 biological replicates per sample. *=p<0.01; **=<0.001. 100R=1Gy. Error bar=1 standard deviation.
The activity of Bouvardin in Drosophila alone or in combination with ionizing radiation (IR) was assessed. Drug concentrations of 10-20 μM were used to approximate the conditions of the original screen. Third instar larvae were irradiated and cultured on medium containing drug. The survival of larvae was quantified 10 days later by measuring the rate of eclosion into adulthood. […] For example, IR alone reduces the eclosion of p53 mutants to 0.63±0.05 and 10 μM of drug reduces it to 0.82±0.15. The combination of Bouvardin and IR reduces eclosion to 0.49, nearly the exact number expected (0.63±0.05×0.82±0.15=0.51±0.10) if the two treatments produced an additive effect. The expected eclosion for additive effect of drug and radiation are denoted with a white dotted line in each graph.
Wild type flies were of the Sevelin stock. Mutants have been described before. p535A-1-4 results from targeted deletion of the gene, and is maintained and used as homogygotes. grpl (Chk1 mutants) results from a p-element insertion and is a genetic null. Homozygotes of the latter were identified by the lack of GFP marker on the balancer chromosome. Minute mutants were of the genotypes y[1]w[*]; P[w[+mC]=lacW]RpS131/CyO and P[lacW]RpL36G0471 w67c23/FM7a. Because Minute mutants were in yw or w background, y1w1 (Bloomington stock #1495) was used as ‘wild type’ control in these experiments.
(§3) Feeding stage 3rd instar larvae were irradiated as previously described (2). Briefly, 120 hr old larvae were rinsed to remove food and passed through sizing sieves to obtain animals of uniform size. Larvae were placed in a Petri dish and irradiated using a TORREX X-ray generator, set at 115 kV and 5 mA (producing 2.4 Rads/sec or 1.44 Gy/min) Irradiated larvae were then cultured on cornmeal-agar media (2) containing drug or DMSO carrier. In all experiments using human cells, cells in 96-well plates were irradiated with a RS2000 Biological Irradiator (Rad Source Technologies, Inc.) delivering 1 Gy/min.

[2] = test system: 17 cell lines including Head and Neck Squamous Cell Carcinoma and non-small cell lung cancer lines; assay: MTT assays, Bouvardin with radiation, panel of 17 cell lines; type: cell-based, human
Text: The observation that Bouvardin enhanced the effect of radiation on Drosophila larvae led us to question whether this effect would translate to a mammalian system. In order to determine what cell lines should be used to create tumor xenografts in mice, MTT assays for cell viability were used first to test the effects of Bouvardin alone and in combination with radiation in human cancer cells. MTT assays measure cell viability by measuring mitochondrial enzyme function. We used 17 cell lines including Head and Neck Squamous Cell Carcinoma and non-small cell lung cancer lines.
The data for non-small cell lung cancer cell line (H157) is depicted in FIG. 16.
(§4) The growth inhibitory effects of Bouvardin with ionizing radiation (IR) were evaluated using a modified tetrazolium salt (MTT) assay. In the MTT assay, 1,000 to 2,000 viable cells were plated in 100 uL of growth medium in 96-well plates (Corning, Ithaca, N.Y.). Following an overnight incubation, drug was added in varying concentrations and the plates were irradiated on the same day (co-treatment) or 24 hr later (pre-treatment) and incubated for 6 to 7 days. The tetrazolium salt was added at a concentration of 0.4 mg/mL to each well following the 6- to 7-day treatment. The plates were incubated with the salt for 4 hours at 37° C. […] The absorbency of each well was measured using an automated plate reader (Molecular Devices, Sunnyvale, Calif.). […]

[3] = test system: grp (Chk1) mutant Drosophila larvae; assay: Drosophila larval survival to adulthood (eclosion), drug with and without IR, grp (Chk1) mutants; type: in vivo; details: for manner in which drug and radiation act together: grp (Chk1) mutants
Experimental: as §1, §2
The activity of Bouvardin in Drosophila alone or in combination with ionizing radiation (IR) was assessed. Drug concentrations of 10-20 μM were used to approximate the conditions of the original screen. Third instar larvae were irradiated and cultured on medium containing drug. The survival of larvae was quantified 10 days later by measuring the rate of eclosion into adulthood. […]

Drosophila = assay: Sensitizing flies to ionizing radiation (FIG. 7); type: in vivo
Text: Bouvardin derivatives are depicted in FIG. 4 as a generic Formula III, with the specific derivative used in this example having R1=COOCH3, R2=OCH3, R3=H, R4=Boc, R5=CH3.
as §3

LD50 in mice = details: mouse, in vivo
[4] = test system: head and neck squamous cell carcinola line (UMSCC2B); assay: MTT assay, bouvardin with radiation, UMSCC2B; type: cell-based, human; details: over a wide range of concentrations
Experimental: MTT assays were used to test the effects of bouvardin alone and in combination with radiation on numerous cell lines. Bouvardin and radiation synergize in non-small cell lung cancer cell line (H157) and head and neck squamous cell carcinola line (UMSCC2B) over a wide range of concentrations between bouvardin and radiation. FIG. 8 depicts this synergy in these two cell lines. The efficiency of bouvardin in sensitizing cancer cells to radiation is measured in terms of Combination Index (CI) as determined by Calcusyn software. CI values are either above, below or equal to 1, indicating antagonizing, synergistic or additive effects respectively. “Gy” in FIG. 8 stands for “Gray,” a radiation unit.
as §4, with “treatment.” for “treatment. The plates were incubated with the salt for 4 hours at 37° C.”

**Q.** Which results are given for COc1ccc(C[C@H]2C(=O)N[C@H](C)C(=O)N(C)[C@@H]3C(=O)N(C)[C@@H](Cc4ccc(O)c(c4)Oc4ccc(cc4)[C@H]3O)C(=O)N[C@@H](C)C(=O)N[C@H](C)C(=O)N2C)cc1 (stereo in doubt) [Bouvardin, bouvardin]?
**A.** manner in which drug and radiation act together [1]: additive manner; eclosion (fraction eclosed, normalized to no IR/drug control) ([1]; 10 μM of drug alone): 0.82±0.15; eclosion ([1]; 10 mM of drug alone): 0.82; eclosion expected if the two treatments produced an additive effect [1]: 0.51±0.10; eclosion expected if the two treatments produced an additive effect ([1]; listed as bouvardin): 0.50; eclosion (fraction eclosed, normalized to no IR/drug control) ([1]; combination of Bouvardin and IR): 0.49; effect on the killing effect of radiation (+IR versus +both) ([1]; drug 10-20 μM): increased the killing effect of radiation in a statistically significant manner; interaction of Bouvardin with radiation across the panel [2]: synergize in most, but not all of these cell lines; manner in which drug and radiation act together [3]: synergistic manner; manner in which drug and radiation act together ([3]; listed as bouvardin): appear to synergize; effect on the killing effect of radiation (+IR versus +both) ([3]; grp mutants, drug 10-20 μM): increased the killing effect of radiation in a statistically significant manner; observed effect of drug with radiation versus additive effect (Drosophila): exceeds additive effect of drug and radiation; LD50 (LD50 in mice): 12.4 mg/kg; interaction of Bouvardin with radiation [4]: synergize
